Tests used:
[1] = test system: P31/Fuj AML cells; experiment: Sequential treatment of P31/Fuj cells (ATRA or LSD1 inhibitor 5 days, then MEKi 3 days; also co-treatment and reverse treatment): cell viability, cell number, apoptosis, CDI; type: cell-based
Experimental: The Bliss independence model was used to derive coefficients of drug interaction (CDI) values, where CDI <1 indicates significant priming by the […] (synergistic effect).
For the proliferation/viability assays, cells were seeded in T75 flasks (0.5×10^6 cells/mL of RPMI/FBS medium) and exposed for 5 days to either vehicle or epigenetic modifier. Unless otherwise specified, the final concentration for GSK2879552 (LSD1i), […] (EZH2i), pinometostat (DOT1Li) and ATRA was 1 μM while for decitabine (DNMTAi) and vorinostat (HDACi) was 100 nM; all epigenetic inhibitors were diluted in DMSO, while ATRA was diluted in Et-OH. Vehicle concentration was kept at 0.1%. […] The final concentration of DMSO was kept at 0.1%. Finally, cells were transferred to 96-well plates (100 μL per well in 3 technical replicates per condition) and cell viability and proliferation were assessed using Guava and ApoTox-Glo Triplex analyses, as indicated below.
For Guava analysis, cells were stained with Guava ViaCount reagent (Luminex #4000-0040) in 96-well plates, by mixing 150 μL of cell suspension with 75 μL of reagent, and left to incubate for a minimum of 10 minutes in the dark, after which they were processed through a Guava easyCyte flow cytometer (Luminex #0500-5005). Flow cytometry data were analysed using CytoSoft (v2.5.7). Viability and cell number values were expressed relative to vehicle control.
For ApoTox-Glo analysis, cell suspensions were transferred to opaque 96-well plates (100 μL per well) and viability and apoptosis measured using ApoTox-Glo Triplex Assay (Promega #G6320). 20 μL of Viability/Cytotoxicity reagent (containing GF-AFC and bis-AAF-R110 substrates) were added to each well, then incubated at 37° C. for 1 hour. Live cell and cytotoxicity outputs were measured on FLUOstar Omega microplate reader (BMG Labtech). To obtain the live cell output, fluorescence was measured at 355EX/520EM (wavelengths in nm); for the cytotoxicity output, fluorescence was measured at 485EX/520EM. Following this, 100 μL of Caspase-Glo 3/7 reagent were added to each well and incubated at 25° C. for 1 hour. Luminescence was then measured on FLUOstar Omega microplate reader (BMG Labtech). The fluorescence and luminescence signals thus obtained were corrected to the respective background controls (culture medium with no cells). Relative cell number values were obtained by normalising live cell outputs to vehicle control. Apoptosis values were obtained by dividing luminescence outputs to the respective live cell outputs, then normalising to vehicle control.
The extent of drug interaction was calculated in Microsoft Excel 2016 using the CDI formula AB/(A*B), where AB is the normalized reduction in cell viability of the sequential treatment, and A and B are the effects of single treatments. Statistical significance of CDI values for each AML sample was determined using a one sample t-test (base R package) with the null hypothesis being that the mean Log2(CDI) equals 0.

[2] = test system: primary AML cells; experiment: Ex-vivo sequential treatment of primary AML blasts co-cultured on MS-5 stromal feeder layer, Guava ViaCount, CDI; type: cell-based, human
Experimental: We then examined whether, besides cell lines, LSD1i could also sensitise primary AML to kinase inhibitor treatment. We obtained CDI values from 17 AML blasts samples (6 normal, 5 complex and 6 MLL karyotypes) treated for 5 days with LSD1i followed by 3 days with either MEKi, PKC/FLT3i or DMSO control (FIGS. 2, H and I). Primary AML cells were cultured and treated in the presence of a feeder layer of bone marrow stromal cells, which, under control conditions, kept cells viable and proliferating throughout the course of the experiment.
Umbilical cord bloods were purchased from Anthony Nolan. Mononuclear cells (MNCs) were isolated by Ficoll prior red blood cells (RBC) lysis buffer (BioLegend, catalog #420301). Cells were then stained with CD34 immunomagnetic positive selection kit (EasySep™ Human CD34 Positive Selection Kit II, StemCell technologies, catalog #17856, according to manufacturer instructions). Purity of CD34^+ cells isolated from MNCs was assessed by flow cytometry prior to long term storage in liquid nitrogen. For AML samples, patients gave informed consent for the storage and use of their blood cells for research purposes. Experiments were performed in accordance with the Local Research Ethics Committee, as previously described. Mononuclear cells from peripheral blood or bone marrow biopsies were isolated in the BCI tissue bank facility and stored in liquid nitrogen.
Cell vials were thawed in 37° C. water bath and contents transferred to 15 mL Falcon tubes containing 4 mL of pre-warmed FBS with 40 ng/mL DNase (Sigma Aldrich D4513-1VL). Suspension was centrifuged at 300×g for 8 minutes, then supernatant was removed and cells resuspended in MyeloCult H5100 medium (Stemcell Technologies #05150) containing 1% P/S and supplemented with human IL-3 (Peprotech #200-03), human G-CSF (Peprotech #300-23) and human TPO (#300-18), each to a final concentration of 20 ng/mL. […]

[3] = results of clinical trials; unselected AML patient populations; cited from earlier work
[4] = test system: acute myeloid leukemia; details: Smitheman et al. (2019); cited from earlier work
[5] = LSD1i and MEKi co-treatment 3 days, P31/Fuj (FIG. 10B)

In the case of `O=C(O)c1ccc(CN2CCC(CN[C@@H]3C[C@H]3c3ccccc3)CC2)cc1` [GSK2879552], the “Log2 CDI, reverse treatment” value ([1]; 3-day pre-treatment with MEKi followed by 5-day LSD1i, additive to strongly antagonistic, P31/Fuj) was over 0, the “Log2 CDI based on cell number and apoptosis, 5+3 days sequential treatment” value ([1]; LSD1i 5 days then MEKi 3 days, all concentrations above 10 nM, strongly synergistic, P31/Fuj (FIG. 10A)) was “below 0” and the “sensitisation to the effects of MEKi (suppressing proliferation and inducing apoptosis)” value ([1]; LSD1i 5 days then MEKi 3 days, dose-dependent manner, P31/Fuj cells (FIG. 2E)) was “sensitised P31/Fuj cells to the effects of MEKi”. The “CDI for apoptosis, 3-day co-treatment” value [1, 5] was “mildly synergistic”, the “CDI for proliferation, 3-day co-treatment” value [1, 5] was “near additive” and the “number of primary AML cases primed for MEKi treatment” value ([2]; LSD1i 5 days then MEKi 3 days, of the 17 primary AML cases (FIG. 2H)) was 8. For the same compound, the “number of primary AML cases primed for PKC/FLT3i treatment” value ([2]; LSD1i 5 days then PKC/FLT3i (midostaurin) 3 days, out of the 14 tested (FIG. 2I)) was 5, the “proportion of AML cases in which LSD1i->MEKi sequential treatment may be particularly effective” value ([2]; LSD1i->MEKi sequential treatment, primary AML) was “about 50%” and the “clinical tolerability as single agent” value [3] was “has side effects”. For the same compound, the “differentiation and cytotoxic response in combination with all-trans retinoic acid (ATRA)” value [4] was “enhances differentiation and promotes cytotoxic response”.
